According to US20230014352A1, “INHALED STATINS AS BRONCHODILATORS TO IMPROVE LUNG FUNCTION IN RESPIRATORY DISEASES” (priority 2019, published 2023):
“Also recorded” adds a separate entry of the source.

Experiments:
[1] = test system: bronchial airways of human PCLS; test: Histamine-induced airway constriction in human PCLS; conditions: pre-treated 24 hrs, compared to vehicle, FIG. 11C
Excerpt: A non-transplantable non-asthmatic human donor lung was obtained through the Gift of Hope/Regional Organ Bank of Illinois, and sliced as per published protocols. Briefly, the lung lobe was filled with 1.5% low melting temperature agarose (Type IX; Sigma, St. Louis, Mo.) in Hanks balanced salt solution (pH=7.4; Invitrogen, Carlsbad, Calif.), and sliced using a VT1200S vibrating blade microtome (Leica Microsystems, Bannockburn, Ill.) to create 250 μm thick slices. Slices were cryopreserved till the day of the experiment.
Slices were treated with pitavastatin (2 μM) for 24 hrs, before challenge with histamine (1 μM). Airway constriction was measured as luminal area changes in response to increasing doses of histamine. In both sets of PCLS samples, airway lumen area was quantified from bright field images using the Fiji image analysis software.

[2] = test system: precision-cut human lung slices; test: Histamine-induced bronchoconstriction in precision-cut human lung slices, pitavastatin and isoproterenol; conditions: 5 μM, 24 hours
Experimental: The experiment was performed under serum-deprived media conditions, n=3-7 airways per group. Changes in lumen narrowing were reported as percentage changes (±SEM) of the pre-treatment state (see FIG. 13). The absolute value of lumen airway area was not statistically different between the pitavastatin and control groups at the pre-treatment state.

eotaxin-3 = test: IL13/TNFα-induced eotaxin-3 peptide secretion by ASM cells; format: cell-based, human; conditions: 2 mM pitavastatin, 72 hrs; cytokines 18 hrs at 10 ng/mL; 10% FBS; FIG. 14A
Experimental: (§1) Non-asthmatic primary human ASM cells were grown to confluence and were either untreated or pre-treated with 2 mM pitavastatin and GGPP (10 mM) for a total of 72 hours. Total cytokine stimulation was for 18 hours at 10 ng/mL. […] All experiments were conducted under serum-containing media conditions (10% FBS).

IL6 = test: IL17/TNFα-induced IL6 peptide secretion by ASM cells; format: cell-based, human; conditions: 2 mM pitavastatin, 72 hrs; cytokines 18 hrs at 10 ng/mL; 10% FBS; FIG. 14B
Experimental: as §1

[3] = test system: primary human airway smooth muscle (ASM) cells; test: Contractile force screening (CFS), basal ASM cell contraction (strain energy); format: cell-based; conditions: for strain energy (ASM contraction): compared to pravastatin; for basal ASM cell contraction: FIG. 1A/1D; for reversibility of force inhibitory effect: media without Pit after treatment, FIG. 10D
Experimental: Primary human airway smooth muscle (ASM) cells derived from both non-asthmatic and asthmatic donors were obtained from the Gift of Hope Organ and Tissue Donor Network. These cells have been well-characterized previously (see for example H. Yoshie et al., Biophys J (2018) 114(9):2194-99). All measurements were performed using cells at passage 5-8 from three non-asthmatic donors. Cells were grown on either 10% serum-containing F12 complete media, or serum-deprived media supplemented with insulin, transferrin, and selenium (Corning, Tewksbury, Mass.). Contractile Force Screening: Human ASM cells were grown to confluence in 96-well plates on custom NuSilTM 8100 elastic substrates (Avantor, Inc., Radnor, Pa.) (R. […] Fluorescent beads (diameter 400 nm) were embedded in the substrate surface to enable traction force calculations based on their displacements. To measure fractions, an inverted epi-fluorescence microscope (DMI 6000B, Leica Inc., Germany) equipped with a heated chamber (37° C.), a monochrome camera ([…]), and a motorized stage was used. Spatial images were recorded of substrate-embedded fluorescent beads at 10× magnification. Based on the bead displacements (resolution 15 μm) relative to a cell-free model, together with knowledge of substrate stiffness and thickness, fractions were computed using the approach of Fourier Transform Traction Cytometry ([…] et al., Pharmacol Ther (2014) 143(1):87-110), modified to the case of cell monolayers ([…] et al., Cell (2007) 129(3):511-22). From each fraction map, the root-mean-squared traction (RMST) value and strain energy were calculated and reported as a measure of normal contraction in the monolayer. On a well-by-well basis, the ratio of the strain energy after vs. before treatment was computed, and all values of a given treatment group were normalized to the mean of each treatment group. Comparison of Statins: […] MA is the immediate product of HMGCR action on HMB-CoA, so addition of MA would reverse the effect of statin inhibition of HMGCR. […] Simvastatin-acid (SA), atorvastatin, pravastatin, and pitavastatin were examined with CFS to determine the dose response of the ASM relaxation effect. […] From each ASM force map, the strain energy (i.e., the energy that is imparted to the substrate by the contractile cells, in pJ) was computed, to represent the average cellular contraction.

ROCK-2 = test: Total ROCK-2 expression, western blot; format: cell-based, human; conditions: 1 μM, 24 hrs, FIG. 15C
Experimental: Non-asthmatic primary human ASM cells were treated with either vehicle or pitavastatin (1 μM) for 24 hours. Cells were then immuno-stained for F-actin expression. […] Cell lysates were analyzed by western blot for total ROCK-1, total ROCK-2, total MLC-2, and phosphorylated MLC-2. As shown in FIGS. 15C and 15D, pitavastatin reduced the total expression of ROCK-1, ROCK-2, and MLC-2 (total and phosphorylated).

primary ASM cells = test: Potentiation of isoproterenol relaxation of histamine-induced ASM contraction; format: cell-based, human; conditions: FIG. 17A
Experimental: Primary ASM cells from a non-asthmatic donor were serum-deprived for 2 days in a tissue culture flask, and then cultured to confluence for an additional 24 hrs in serum-free medium in 96-well traction force measurement plates (3 kPa stiffness). The pre-treatment contractile force was measured as described above. Cells were then treated with either vehicle (PEG400), control (serum-free medium) or Pitavastatin at concentrations of 10^−5 M, 10^−6 M, 10^−7 M, and 10^−8 M, for 24 hrs, and the baseline contractile force measured. ASM cells were then acutely treated with histamine (10 μM) for 30 minutes, and the histamine-induced contractile force was measured. The cells were then treated with isoproterenol (10^−6, 10^−7, 10^−8, 10^−9, and 10^−11 M) for 30 minutes, and the isoproterenol-relaxed ASM contractile force was measured. The percent “histamine contraction” was calculated as the ratio of isoproterenol-relaxed ASM contractile force to histamine-induced contractile force. […] FIG. 17B details the data boxed in FIG. 17A.

[4] = 1 μM, serum-deprived media, FIG. 10B

Q: With `O=C(O)C[C@H](O)C[C@H](O)/C=C/c1c(C2CC2)nc2ccccc2c1-c1ccc(F)cc1` [pitavastatin] as the compound, how does the “1 μM histamine-induced airway constriction (lumen narrowing)” value [1] read?
A: significantly inhibited

Q: And the “1 μM histamine-induced airway constriction (lumen narrowing)” value ([1]; listed as Pit)?
A: significantly reduced

Q: What about the “interference with the β2-agonist effect of isoproterenol” value [2] of the same compound?
A: did not interfere; also recorded: does not interfere

Q: What about the “histamine (Hist)-induced bronchoconstriction” value ([2]; histamine 10 μM 15 min, serum-deprived, FIG. 13) of the same compound?
A: reduced

Q: What about the “IL13/TNFα-induced eotaxin-3 peptide secretion” value (eotaxin-3) of the same compound?
A: inhibited

Q: And the “IL17/TNFα-induced IL6 peptide secretion” value (IL6)?
A: inhibited

Q: What about the “inhibitory potency on ASM contraction, dose-response ranking” value ([3]; 0-10 μM, FIG. 1C, 1D) of the same compound?
A: most significant effect

Q: And the “strain energy (ASM contraction)” value ([3]; 0.4 μM, 24 hours, FIG. 1C)?
A: significant reduction in strain energy

Q: And the “basal ASM cell contraction” value ([3]; 1 μM, 24 hours)?
A: potently and significantly inhibits basal ASM contraction

Q: And the “basal ASM cell contraction” value ([3]; 1 μM, 24 hours, listed as Pitavastatin)?
A: more potent

Q: And the “relaxation effect at 24 hrs compared to simvastatin” value [3, 4]?
A: more significant at 24 hrs

Q: And the “relaxation effect at 24 hrs compared to simvastatin” value ([3]; 1 μM, serum-deprived media, FIG. 10B, listed as Pit)?
A: significantly more efficacious than Sim

Q: And the “ASM relaxation over time compared to simvastatin” value ([3]; 1 μM, all time points including 24 hours, with or without media starvation, FIG. 4C)?
A: greater ASM relaxation than simvastatin

Q: What about the “reversibility of force inhibitory effect” value ([3]; 1 μM) of the same compound?
A: reversible

Q: And the “reversibility of force inhibitory effect” value ([3]; 1 μM, listed as Pit)?
A: reversed

Q: And the “ASM contraction over time compared to control” value [3, 4]?
A: reduced ASM contraction time-dependently

Q: And the “strain energy (ASM contraction)” value ([3]; 2 and 10 μM, 24 hours, FIG. 1C)?
A: significantly (and further) reduce strain energy

Q: What about the “ASM contraction / ASM cell relaxation” value ([3]; FIG. 10A) of the same compound?
A: inhibited ASM contraction

Q: What about the “dose-dependent effect on ASM” value ([3]; primary ASM cells from three different human donors, FIG. 3) of the same compound?
A: dose-dependently relax ASM

Q: And the “potency on basal ASM contraction relative to simvastatin” value ([3]; same dose, 1 μM, 24 hours, FIG. 1D)?
A: more potent than simvastatin

Q: And the “start of ASM relaxing effects” value ([3]; time-dependent effects, FIG. 4C)?
A: 4 h

Q: What about the “total (basal) expression of ROCK-2” value (ROCK-2) of the same compound?
A: reduced

Q: What about the “effect of isoproterenol on histamine contraction compared to vehicle” value (primary ASM cells; 10^−7 M, 10^−6 M and 10^−5 M pitavastatin 24 hrs, 10^−9 M and 10^−8 M isoproterenol) of the same compound?
A: potentiated

Q: And the “degree of relaxation compared to vehicle” value (primary ASM cells; all concentrations of statin, 10^−11 M isoproterenol)?
A: not substantially different from vehicle
